# Measurements as given in patent US7915012B2, “Methods for screening for inhibitors of TRPV2 activation” (Korea University Industry and Academic Collaboration …, priority 2008, dated 2011).
# Entries after “also recorded” stand apart in the source; their conditions may differ.
# Assays:
# Assay type in all cases: cell-based
# mTRPA1 = molecular target: T1, mTRPA1 (Mus musculus, UniProt Q8BLA8); assay: Fluo-3 calcium imaging in TRPA1 transfected HEK293T cell line; settings: 100 μM probenecid
# T1 construct: expressed in transfected cells; host or cells: HEK293T (ATCC CRL-11268)
# Experimental: (§1) HEK293T cell line (ATCC CRL-1 1268) was transiently transfected with plasmid DNA containing polynucleotide encoding […] (SEQ. ID. NO: 1), rTRPV2 (SEQ. ID. NO: 2), mTRPV3 (SEQ. ID. NO: 3), rTRPV4 (SEQ. ID. NO: 4), mTRPM8 (SEQ. ID. NO: 5) or mTRPA1 (SEQ. ID. NO: 6).
# (§2) Particularly, the HEK293T cell line was transiently transfected with individual TRP channel plasmid (pcDNA3.1 containing polynucleotide encoding rTRPV1, rTRPV2, mTRPV3, rTRPV4, mTRPM8 or mTRPA1), and 600 ng/well of pCDNA3 (Invitrogen Corp., USA; containing green fluorescent protein (GFP) cDNA) using Fugene6 (Roche Diagnostics, USA) according to manufacturer's instruction. The transformed cells were cultured in DMEM/F12 containing 10% FBS and 1% penicillin/streptomycin in a CO2 incubator for 24 hours. The cells were replated onto poly-L-lysine-coated glass coverslips, followed by further culture for 10-24 hours.
# Particularly, the transfected cell line of Example <3-1> and Example <3-2> was loaded with Fluo-3AM (5 μM; Sigma Aldrich, USA) in the bath solution (140 mM NaCl, 5 mM KCl, 2 mM CaCl2, 1 mM MgCl2, 10 mM HEPES; adjusted to pH 7.4 with NaOH) containing 0.02% pluronic acid (Invitrogen, USA) at 37° C. for 1 hour. […]
# rTRPV2 [1] = molecular target: T2, rTRPV2 (Rattus norvegicus, UniProt Q9WUD2, A713V/L151P/T158I); assay: Fluo-3 calcium imaging in TRPV2 transfected HEK293T cell line
# T2 construct: expressed in transfected cells; host or cells: HEK293T (ATCC CRL-11268)
# T2 sequence (Q9WUD2 1-761 L151P/T158I/A713V): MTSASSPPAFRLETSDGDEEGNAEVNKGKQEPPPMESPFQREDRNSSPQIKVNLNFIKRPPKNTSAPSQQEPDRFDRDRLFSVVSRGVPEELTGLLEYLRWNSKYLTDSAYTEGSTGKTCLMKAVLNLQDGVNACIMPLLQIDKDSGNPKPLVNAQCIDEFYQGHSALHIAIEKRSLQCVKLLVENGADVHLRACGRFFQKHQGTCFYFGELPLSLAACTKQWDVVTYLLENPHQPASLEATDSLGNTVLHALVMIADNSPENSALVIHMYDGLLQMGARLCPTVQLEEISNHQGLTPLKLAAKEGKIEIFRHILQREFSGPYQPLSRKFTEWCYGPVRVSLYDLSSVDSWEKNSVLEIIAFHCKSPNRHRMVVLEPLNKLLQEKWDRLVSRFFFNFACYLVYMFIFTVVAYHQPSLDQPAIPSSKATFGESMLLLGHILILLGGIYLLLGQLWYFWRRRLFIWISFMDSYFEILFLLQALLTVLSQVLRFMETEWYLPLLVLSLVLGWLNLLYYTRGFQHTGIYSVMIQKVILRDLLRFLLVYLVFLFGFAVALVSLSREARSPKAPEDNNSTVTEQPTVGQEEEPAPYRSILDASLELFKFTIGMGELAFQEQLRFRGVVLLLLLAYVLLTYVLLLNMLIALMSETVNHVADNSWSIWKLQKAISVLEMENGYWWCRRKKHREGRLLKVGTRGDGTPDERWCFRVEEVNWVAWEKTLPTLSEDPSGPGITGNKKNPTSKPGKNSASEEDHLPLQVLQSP
# Experimental: as §1, §2
# The TRPV2 transfected cell line prepared in Example 1 was treated with 100 μM probenecid and 300 μM 2-APB.
# The TRPV2 transfected cell line prepared in Example 1 was treated with probenecid at different concentrations from 0.1 to 1,000 μM.
# Particularly, the transfected cell line of Example <3-1> and Example <3-2> was loaded with Fluo-3AM (5 μM; Sigma Aldrich, USA) in the bath solution (140 mM NaCl, 5 mM KCl, 2 mM CaCl2, 1 mM MgCl2, 10 mM HEPES; adjusted to pH 7.4 with NaOH) containing 0.02% pluronic acid (Invitrogen, USA) at 37° C. for 1 hour. Calcium imaging was performed with a confocal microscope (LSM5 Pascal, Carl Zeiss, Germany), and time-lapse images (excitation 488 nm/emission 514 nm) were collected every 3 seconds using Carl Zeiss ratio tool software (Carl Zeiss, Germany).
# The TRPA1, TRPV1, TRPV2, TRPV3, TRPV4 and TRPM8 transfected cell lines prepared by the method of Example 1 and the non-transfected HEK cell line (control group) were treated with 100 μM probenecid. Calcium imaging was performed with the transfected cell lines treated as the above by the same manner as described in Example <3-3>.
# rTRPV2 [2] = molecular target: T2, rTRPV2; assay: Whole-cell voltage-clamp recording in TRPV2 transfected HEK293T cell line; settings: 100 μM probenecid; +60 mV and −60 mV; n=5
# Experimental: as §1, §2
# The TRPV2 transfected cell line prepared in Example 1 was treated with 100 μM probenecid (Sigma-Aldrich, USA) and 300 μM 2-APB (2-aminoethoxydiphenyl borate; Cayman Chemical, USA), respectively. Stock solutions were made using water, DMSO or ethanol, and were diluted with test solutions before use.
# Whole-cell voltage-clamp recording, one of the patch-clamp techniques, was performed with the transfected cell line of Example <1-1> according to the method of Bandel M, et al. (Neuron 41:849-857, 2004).
# Particularly, the extracellular solution (140 mM NaCl, 5 mM KCl, 2 mM CaCl2, 1 mM MgCl2, 10 mM HEPES; titrated to pH 7.4 with NaOH) and the pipette solution (140 mM CsCl, 5 mM EGTA, 10 mM HEPES, 2.0 mM MgATP, 0.2 mM NaGTP; titrated to pH 7.2 with CsOH) were used. The potential was held at −60 mV for 250 ms, voltage-ramp pulsed from −80 mV to +80 mV for […] and returned to −60 mV for 250 ms, which was repeated without intersweep. This experiment was repeated 5 times.
# The TRPV2 transfected cell line prepared by the method of Example 1 was treated with 100 μM probenecid, 100 μM probenecid+20 μM ruthenium red (Sigma-Aldrich, USA) and 300 μM 2-APB, respectively. […]
# T1 sequence (Q8BLA8 whole entry): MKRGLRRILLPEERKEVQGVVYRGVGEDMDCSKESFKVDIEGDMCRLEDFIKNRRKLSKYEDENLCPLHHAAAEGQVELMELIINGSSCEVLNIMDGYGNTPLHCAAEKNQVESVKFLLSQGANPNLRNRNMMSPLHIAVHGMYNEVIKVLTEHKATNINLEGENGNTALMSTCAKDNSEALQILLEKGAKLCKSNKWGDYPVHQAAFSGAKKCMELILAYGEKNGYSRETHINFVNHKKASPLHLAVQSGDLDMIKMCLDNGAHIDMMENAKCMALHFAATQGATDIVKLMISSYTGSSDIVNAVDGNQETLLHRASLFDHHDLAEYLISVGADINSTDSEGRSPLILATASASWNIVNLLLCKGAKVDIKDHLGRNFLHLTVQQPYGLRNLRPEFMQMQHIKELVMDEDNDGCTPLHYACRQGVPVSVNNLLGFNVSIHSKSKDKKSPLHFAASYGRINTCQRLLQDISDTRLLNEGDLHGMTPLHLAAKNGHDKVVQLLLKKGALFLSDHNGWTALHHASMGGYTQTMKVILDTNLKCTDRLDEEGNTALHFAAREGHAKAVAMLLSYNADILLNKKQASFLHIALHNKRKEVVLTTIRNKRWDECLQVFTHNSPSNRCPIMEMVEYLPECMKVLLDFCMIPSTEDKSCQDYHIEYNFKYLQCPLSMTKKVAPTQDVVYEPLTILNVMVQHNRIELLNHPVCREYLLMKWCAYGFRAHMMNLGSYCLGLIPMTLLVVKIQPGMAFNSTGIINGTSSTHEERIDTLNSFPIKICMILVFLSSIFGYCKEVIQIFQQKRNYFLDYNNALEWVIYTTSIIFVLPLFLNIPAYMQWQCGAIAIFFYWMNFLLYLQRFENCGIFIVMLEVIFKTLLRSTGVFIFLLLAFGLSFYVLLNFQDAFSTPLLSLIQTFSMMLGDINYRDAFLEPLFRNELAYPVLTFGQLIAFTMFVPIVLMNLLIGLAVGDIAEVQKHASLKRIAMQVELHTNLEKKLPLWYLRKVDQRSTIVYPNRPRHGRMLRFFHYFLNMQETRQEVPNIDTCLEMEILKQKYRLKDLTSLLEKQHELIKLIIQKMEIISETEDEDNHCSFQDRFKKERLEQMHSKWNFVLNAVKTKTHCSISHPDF
smiles,measurement,setting,value
CCCN(CCC)S(=O)(=O)c1ccc(C(=O)O)cc1 [probenecid],TRPA1 activation (calcium imaging),mTRPA1,only TRPV2 was activated; also recorded: not confirmed
same,TRPV2 activation (calcium imaging),rTRPV2 [1]; 100 μM probenecid,activated
same,n (Hill plot of calcium influx responses),rTRPV2 [1]; n=12-62 per experimental value,2.8
same,Kd,"rTRPV2 [1]; n=12-62 per experimental value, read-out: Kd (Hill plot of calcium influx responses)",31.9 µM
same,maximal effective dose,"rTRPV2 [1]; probenecid 0.1 to 1,000 μM, calcium influx",about 1 mM
same,EC50,"rTRPV2 [1]; probenecid 0.1 to 1,000 μM, calcium influx, read-out: EC50 (effective concentration 50%) on TRPV2",31.9 µM
same,whole cell current (TRPV2 activation),rTRPV2 [2],significant increase of current
